Laboratory results published in the supplement of paper PMC8671470.

Key:
Conditions in all cases: 72 h
[1] = tested on: Mono-Mac-6; assay: cell viability (% survival relative to DMSO control, bortezomib = 0%); higher = less cytotoxic
Procedure, shortened: (§1)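 Percent survival figures are means of duplicate wells. They were obtained by CellTiter-Glo luminescence after 10 AML and 5 CML cell lines spent 72 h at 37 °C with 5% CO2 in 384-well plates with compounds at 1, 10, 100, 1000 or 10000 nM. Vehicle was set to 100% and a 10 µM positive control to 0%.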

[2] = tested on: LAMA-84; assay: as above
Procedure, shortened: as §1

[3] = tested on: BV-173; assay: as above
Procedure, shortened: as §1

[4] = tested on: myeloid leukemia patient primary cells Pat.2; assay: cell viability (% survival relative to DMSO control); higher = less cytotoxic
Procedure, shortened: (§2)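 Mononuclear cells from patients with AML or CML were thawed, purified on Ficoll and placed in RPMI 1640 with 10% FBS at 10,000 cells/well on 384-well plates. The plates came pre-printed with 70 compounds at five tenfold concentrations spanning 1–10,000 nM, in duplicate, and cells were exposed for 72 h. CellTiter-Glo gave viability, scaled between DMSO wells and wells with 10 μM proteasome inhibitor. Where reported, area under the curve was obtained from log-logistic fits with four parameters using the drc and PharmacoGx R packages.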

[5] = tested on: myeloid leukemia patient primary cells Pat.14; assay: as above
Procedure, shortened: as §2

[6] = tested on: myeloid leukemia patient primary cells Pat.10; assay: as above
Procedure, shortened: as §2

[7] = tested on: myeloid leukemia patient primary cells Pat.8; assay: as above
Procedure, shortened: as §2

[8] = tested on: myeloid leukemia patient primary cells Pat.11; assay: area under dose-response curve (viability, 1 nM-10 uM) (fraction (0-1)); higher = more sensitive
Description: (§3)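 AUC (0–1, higher = more sensitive) of the 5-point dose–response (1 nM–10 µM, 72 h, CellTiter-Glo) in primary AML/CML patient mononuclear cells. 0.030103 is the floor for inactive compounds.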

[9] = tested on: myeloid leukemia patient primary cells Pat.13; assay: as above
Description: as §3

[10] = tested on: myeloid leukemia patient primary cells Pat.7; assay: as above
Description: as §3

[11] = tested on: myeloid leukemia patient primary cells Pat.4; assay: as above
Description: as §3

[12] = tested on: myeloid leukemia patient primary cells Pat.2; assay: as above
Description: as §3

[13] = tested on: myeloid leukemia patient primary cells Pat.12; assay: as above
Description: as §3

[14] = tested on: myeloid leukemia patient primary cells Pat.14; assay: as above
Description: as §3

[15] = tested on: myeloid leukemia patient primary cells Pat.6; assay: as above
Description: as §3

[16] = tested on: myeloid leukemia patient primary cells Pat.15; assay: as above
Description: as §3

[17] = tested on: myeloid leukemia patient primary cells Pat.3; assay: as above
Description: as §3

[18] = tested on: myeloid leukemia patient primary cells Pat.1; assay: as above
Description: as §3

[19] = tested on: myeloid leukemia patient primary cells Pat.10; assay: as above
Description: as §3

[20] = tested on: myeloid leukemia patient primary cells Pat.9; assay: as above
Description: as §3

[21] = tested on: myeloid leukemia patient primary cells Pat.8; assay: as above
Description: as §3

[22] = tested on: HL-60; assay: area under dose-response curve (viability, 1 nM-10 uM) (fraction (0-1)); higher = more sensitive
Procedure, shortened: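 Four-parameter log-logistic fits in drc and PharmacoGx supplied area under the curve where it is given. Underlying viability came from CellTiter-Glo, normalised to DMSO and proteasome-inhibitor wells, with the proteasome inhibitor at 10 μM. HL-60 cells in RPMI 1640 plus 10% FBS had been rescreened against the full library at five tenfold concentrations of 1–10,000 nM, in duplicate on 384-well plates, with DMSO or 100 nM of one of three metabolic inhibitors, for 72 h at 37 °C, 5% CO2.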

[23] = tested on: myeloid leukemia patient primary cells Pat.5; assay: area under dose-response curve (viability, 1 nM-10 uM) (fraction (0-1)); higher = more sensitive
Description: as §3

Cc1c2c(=O)n(-c3ccccc3Cl)[nH]c2cc(=O)n1Cc1ccccn1
cell viability [%]
Conditions | [1] | [2] | [3] | [4] | [5] | [6] | [7]
1 nM | 89 | 93.8 | 98 | 86.2 | 28.5 | 27.2 | 79.7
10 nM | 109 | 108 | 104 | 92.7 | 69.8 | 64.5 | 92.3
100 nM | 96 | 100 | 94.6 | 88.6 | 64.5 | 42.2 | 86.6
1000 nM | 103 | 99.9 | 95.5 | 94.6 | 99.6 | 86.1 | 96.9
10000 nM | 99.5 | 99.9 | 81.4 | > 100 | > 100 | 42.3 | 75.9

Conditions | area under dose-response curve
[8] | < 0.0301
[9] | < 0.0301
[10] | < 0.0301
[11] | < 0.0301
[12] | < 0.0301
[13] | < 0.0301
[14] | < 0.0301
[15] | < 0.0301
[16] | < 0.0301
[17] | < 0.0301
[18] | < 0.0301
[19] | 0.0358
[20] | < 0.0301
[21] | < 0.0301

O=c1cc(N2CCOCC2)oc2c(-c3ccccc3)cccc12
Conditions | area under dose-response curve, [22] | cell viability, [1] [%] | cell viability, [2] [%] | cell viability, [3] [%] | cell viability, [4] [%] | cell viability, [5] [%] | cell viability, [6] [%] | cell viability, [7] [%]
1 nM | – | 116 | 127 | 176 | 92.1 | 86.4 | 31.3 | 88.3
10 nM | – | 103 | 108 | 95.7 | 87.9 | 56.8 | 46.9 | 86
100 nM | – | 95.3 | 46.1 | 1.14 | 99.7 | 91.1 | 78.1 | 92.4
1000 nM | – | 83.2 | 84.2 | 95.6 | 91.1 | 77.9 | 50.8 | 67.1
10000 nM | – | 40.7 | 65.3 | 48 | 67.2 | 58.3 | 22.6 | 61.5
co-treatment: AZD3965 100 nM | < 0.0301 | – | – | – | – | – | – | –
co-treatment: GSK2194069 100 nM | < 0.0301 | – | – | – | – | – | – | –
co-treatment: pictilisib 100 nM | 0.058 | – | – | – | – | – | – | –

Conditions | area under dose-response curve
[8] | 0.0446
[9] | 0.0372
[10] | < 0.0301
[11] | 0.18
[12] | 0.0446
[13] | < 0.0301
[14] | 0.0381
[15] | < 0.0301
[16] | 0.136
[17] | < 0.0301
[18] | 0.14
[19] | 0.771
[20] | 0.736
[23] | 0.782

O=C1C(SCCO)=C(SCCO)C(=O)c2ccccc21
Conditions | area under dose-response curve, co-treatment: AZD3965 100 nM | area under dose-response curve, co-treatment: DMSO vehicle | area under dose-response curve, co-treatment: GSK2194069 100 nM | area under dose-response curve, co-treatment: pictilisib 100 nM | cell viability, 1 nM [%] | cell viability, 10 nM [%] | cell viability, 100 nM [%] | cell viability, 1000 nM [%] | cell viability, 10000 nM [%]
[1] | – | – | – | – | 111 | 102 | 104 | 30 | -0.648
[2] | – | – | – | – | 105 | 95.6 | 101 | 36.1 | 1.35
[3] | – | – | – | – | 107 | 106 | 98.5 | 0.154 | -0.205
[4] | – | – | – | – | 93.1 | > 100 | 97.1 | 55.8 | 0.14
[5] | – | – | – | – | 41.2 | 91.4 | 61.7 | 5.04 | 4.94
[6] | – | – | – | – | 29.3 | > 100 | 60.9 | 35 | > 100
[7] | – | – | – | – | 74.2 | 70 | 95.1 | 65.4 | 0.0301
[22] | 0.139 | 0.114 | 0.125 | 0.192 | – | – | – | – | –

Conditions | area under dose-response curve
[8] | 0.355
[9] | 0.147
[10] | 0.45
[11] | 0.354
[12] | 0.234
[13] | 0.385
[14] | 0.421
[15] | 0.187
[16] | 0.444
[17] | 0.33
[18] | 0.378
[20] | 0.455
[21] | 0.174
[23] | 0.455

Cn1cc(-c2ccncc2)c(-c2ccc(OCc3ccc4ccccc4n3)cc2)n1
cell viability [%]
Conditions | [1] | [2] | [3] | [4] | [5] | [6] | [7]
1 nM | 92.7 | 104 | 93.5 | 94.2 | 82.6 | 95 | 81
10 nM | 87.4 | 114 | 97.7 | 94.8 | 86.8 | 65 | 89.1
100 nM | 89.5 | 98.4 | 93.6 | 98.5 | 86.7 | 78.5 | 93.4
1000 nM | 90.5 | 95.8 | 90.2 | 77.3 | 50.1 | 44.2 | 74.4
10000 nM | 52.3 | 60 | 57.3 | 80.2 | 43.4 | 54.7 | 83.6

Conditions | area under dose-response curve
[8] | < 0.0301
[9] | 0.067
[10] | 0.309
[11] | < 0.0301
[12] | < 0.0301
[13] | < 0.0301
[14] | 0.183
[16] | < 0.0301
[17] | 0.219
[18] | < 0.0301
[19] | 0.163
[20] | 0.694
[21] | < 0.0301
[23] | 0.938
